ChEMBL document CHEMBL1629496, “Four diphenylpropanes and a cycloheptadibenzofuran from Bussea sakalava from the Madagascar dry forest” (J Nat Prod, 2010)

Tested on: A2780
Assay: Antiproliferative activity against drug-sensitive human A2780 cells
Assay type: functional, cell-based

Compound	IC50 [µM]
COc1ccc(CCCc2cc(O)c(OC)c(O)c2)c(O)c1O [BUSSEALIN A]	36
COc1cc(OC)c(CCCc2ccc(OC)c(O)c2O)cc1O [BUSSEALIN B]	24
COc1ccc(CCCc2ccc(OC)c(O)c2O)cc1O [BUSSEALIN C]	36

Now from value to compound:

IC50 [µM]	Compound
40	COc1cc(OC)c(OC)cc1CCCc1ccc(OC)c(O)c1O [BUSSEALIN D]
45	COc1c(O)c2c3c(oc4c(OC)c(O)cc(c43)CCC2)c1OC [BUSSEALIN E]
